The record followed here is ChEMBL document CHEMBL1139724, “Synthesis and free radical scavenging activity of a novel metabolite from the fungus Colletotrichum gloeosporioides” (Bioorg Med Chem Lett, 2006).

The structures appear in SMILES notation.

The nature of this assay: DPPH radical scavenging activity. The class given is functional. For orientation: The DPPH test is a chemical assay of radical scavenging.
In turn, `Cc1cc(C(C)(C)C)c(O)c(C(C)(C)C)c1` [BUTYLATED HYDROXYTOLUENE] displayed an EC50 of 0.23 mol/mol.

`O=C(O)c1ccc(O)c(O)c1` [PROTOCATECHUIC ACID] displayed an EC50 of 0.14 mol/mol.

For `Oc1ccc([C@H]2OC[C@H](O)[C@@H]2O)cc1O`, the EC50 was 0.14 mol/mol.

Molecule `O=C(O)/C=C/c1ccc(O)c(O)c1` [CAFFEIC ACID] registered an EC50 of 0.11 mol/mol.
